Laboratory results taken from patent US20030104393A1, “Blood assessment of injury” (priority 2000, published 2003).

System: blood cells
Experiment: Blood pattern of gene expression in epileptic individuals treated with anticonvulsant valporate or carbamazepine (Affymetrix U95A, SAM)
Assay type: in vivo, human
Conditions: for Upregulated genes for Carbamazepine: blood of epileptic individuals treated with carbamazepine vs epileptic individuals taking no anticonvulsant, value = Genbank accession of the upregulated gene; for Pattern of expression in blood for each drug: epileptic individuals treated with anticonvulsant vs epileptic individuals taking no anticonvulsant, FIG. 5
Excerpt: FIG. 5 is a cluster analysis of the expression obtained from pediatric epilepsy patients prior to being treated compared to the expression of these individuals after being treated with anticonvulsant valporate (VPA) or the anticonvulsant carbamazepine (CPZ), as described in the Example 8;
To study the gene expression in Parkinson's patients, blood from over 30 patients is collected from healthy controls as well as from patients with a variety of disorders, including idiopathic Parkinson's patients with bradykinesia, rigidity and the characteristic tremor without dementia or evidence of any other neurological findings; progressive supranuclear palsy, bipolar disorder, schizophrenia, epilepsy, and Tourettes. A commercially available kit (Qiagen) is used to the blood cells from the whole blood samples, and total RNA isolated from the white blood cells. Two thirds of the RNA is used on DNA microarrays, and one third is used for PCR confirmation of the genes that are changed. After the purity of the RNA is checked ([…]), cDNA is synthesized from the total RNA and used to make biotin labeled cRNA. The cRNA is then applied to Affymetrix chips, human U95A chips that can screen for the expression of over 13,000 human genes including 11,000 known genes and 2,000 ESTs, and processed and scanned according to manufacturer's instructions. The chips are scanned twice for each patient sample. Genes that are expressed over two-fold compared to normals are plotted on figures. These genes are confirmed using standard techniques including PCR, Northern blotting or Western blotting. A separate statistical analysis is also applied to the data. […] Once this analysis is performed, the data is used to perform a class prediction analysis. […] The expression value of the genes is shown on the Y axis and the individual patients are plotted on the X-axis.
Blood is obtained from epileptic individuals, epileptic individuals being treated with anticonvulsant valporate and epileptic individuals being treated with anticonvulsant carbamazepine. A pattern of expression is captured and analyzed for each injury state as described in Example 4.

Row | Structure (SMILES) | Upregulated genes for Carbamazepine (gene AA883870: am26f01.s1 Homo sapiens cDNA, 3 end) | Upregulated genes for Carbamazepine (gene AB000824: Homo sapiens mRNA for trehalase, complete cds) | Pattern of expression in blood for each drug
1 | NC(=O)N1c2ccccc2C=Cc2ccccc21 [Carbamazepine, carbamazepine] | AA883870 | AB000824 | different from each other and different from the controls
2 | CCCC(CCC)C(=O)O [Valporate, valporate] | – | – | different from each other and different from the controls
